Earlier results as cited in patent US8828355B2, “Imaging reporters of transgene expression” (University of Utah Research Foundation, priority 2004, dated 2014).

What was measured:
Maltose binding protein = Maltose binding protein (Escherichia coli, UniProt P0AEX9); conditions: specificity
[1] = molecular target: Mutant maltose binding protein, combination of both these mutations (Escherichia coli, UniProt P0AEX9, DEL198-201/M347A/Q351A/Y202G); conditions: read-out: KD for maltotriose

Question: For `OC[C@H]1O[C@H](O[C@H]2[C@H](O)[C@@H](O)[C@H](O)O[C@@H]2CO)[C@H](O)[C@@H](O)[C@@H]1O` [maltose], which “clearance from the body” value (infused) is on record?
Answer: rapidly cleared from the body by the kidney

Question: And the distribution after infusion (infused)?
Answer: distributed in the extracellular space

Question: And the “safety of intravenous infusion” value (intravenous infusion)?
Answer: safe

Question: For `OC[C@H]1O[C@@](CO)(O[C@H]2O[C@H](CO)[C@@H](O)[C@H](O)[C@H]2O)[C@@H](O)[C@@H]1O` [sucrose], which “binding to maltose binding protein” value (Maltose binding protein) is on record?
Answer: not to bind

Question: For `OC[C@H]1O[C@@H](O[C@H]2[C@H](O)[C@@H](O)C(O)O[C@@H]2CO)[C@H](O)[C@@H](O)[C@H]1O` (stereo partly shown) [lactose], which “binding to maltose binding protein” value (Maltose binding protein) is on record?
Answer: not to bind

Question: With `OC[C@H]1O[C@H](O[C@H]2O[C@H](CO)[C@@H](O)[C@H](O)[C@H]2O)[C@H](O)[C@@H](O)[C@@H]1O` [trehalose] as the molecule, how does the “binding to maltose binding protein” value (Maltose binding protein) read?
Answer: not to bind

Question: For maltotriose, which Kd [1] is on record?
Answer: 6 nM
